SMILES strings stand for the structures.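 Following 48 hours of exposure in 96-well plates, responses at five concentrations were used to interpolate endpoints linearly. The concentration for 50% growth inhibition is given as GI50.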 Active and inactive are the calls of the source. No stated cut-off is given here; in the data, active = GI50 up to about 1.1 µM and inactive = higher.

What all share (assay): NCI anticancer screen, dose series, 48 h
Assay [1] relates to HCC 2998.
Assay [2] relates to HOP-92.
For assay [3], the system named is K562.
Assay [4] deals with M19-MEL.
Assay [5] has as its system Malme-3M.
The test system of assay [6] is NCI/ADR-RES.
The subject of assay [7] is RXF 393.
Assay [8] relates to SNB-75.
The subject of assay [9] is XF498.
In assay [10] the test system is ACHN.
Assay [11] concerns Hs-578T.
Assay [12] deals with MDA-MB-435.
Assay [13] deals with MDA-N.
Assay [14] relates to SR.
The subject of assay [15] is T47D.
Assay [16] relates to TK-10.
The test system of assay [17] is BT-549.
The test system of assay [18] is DU-145.
The test system of assay [19] is M14.
In assay [20] the test system is MDA-MB-231.

Regarding `Nc1c(S(=O)(=O)O)cc2cc(S(=O)(=O)O)ccc2c1/N=N/c1ccc(-c2ccc(/N=N/c3c(N)c(S(=O)(=O)O)cc4cc(S(=O)(=O)O)ccc34)c(S(=O)(=O)O)c2)cc1`, the GI50 in assay [1] is > 100 µM (inactive); in assay [2], > 56.9 µM (inactive); in assay [3], > 100 µM (inactive); in [4] it was > 100 µM (inactive); in assay [5], > 100 µM (inactive); in assay [6], > 100 µM (inactive). Moreover, the figures for the GI50 in assay [7], in [8] and in assay [9] were > 100 µM (inactive), 85.5 µM (inactive) and > 64.6 µM (inactive), respectively.
For the compound `CC(C)N1CSC(=S)N(Cc2ccccc2)C1`, the GI50 is > 10 µM (inactive) in assay [10]; > 10 µM (inactive) in assay [1]; 2.84 µM (inactive) in assay [2]; > 10 µM (inactive) in assay [11]; 2.48 µM (inactive) in assay [3]; 3.84 µM (inactive) in assay [12]. Also, the GI50 was 2.42 µM (inactive) in [13]; > 10 µM (inactive) in assay [6]; 2.37 µM (inactive) in [7]; 2.8 µM (inactive) in [8]; 1.64 µM (inactive) in [14]; 4.29 µM (inactive) in [15]. The GI50 in assay [16] is 3.61 µM (inactive).
With `S=CN1CCCCC1`, the GI50 in assay [10], in assay [17], in [18], in assay [1], in assay [11] and in [3] was > 100 µM (inactive) throughout. Besides, the GI50 in assay [19], in assay [20], in [12], in [13], in assay [5] and in assay [6] was > 100 µM (inactive) each time. Further, the GI50 in [8], in assay [14], in assay [15] and in [16] was > 100 µM (inactive) in each case.
As for `N#C/C(=C\NC(=S)Nc1ccc(S(=O)(=O)Nc2ccccn2)cc1)C(N)=O`, the GI50 in assay [10] is > 100 µM (inactive); in assay [18] it was > 100 µM (inactive); in assay [2] it was > 100 µM (inactive); in assay [11] it was > 100 µM (inactive); in assay [3] it was 47.9 µM (inactive); in assay [19], > 100 µM (inactive). Moreover, the GI50 in assay [20], in [12], in assay [13], in assay [5], in assay [6] and in assay [7] was > 100 µM (inactive) each time. Moreover, the GI50 in assay [8] was 61.8 µM (inactive); in assay [14] it was > 100 µM (inactive); in [16], > 100 µM (inactive).
On to `CCOC(=O)C1=C(C)N(c2ccc(OC)cc2)C2(O)C=CC(O)=C3C(=O)c4ccccc4C(=O)C312` (stereo not given), for which the GI50 in [10] was 14.3 µM (inactive); in [17], 14 µM (inactive); in assay [18], 14.4 µM (inactive); in [2], 2.25 µM (inactive); in [11], 5.47 µM (inactive); in assay [3], 12.6 µM (inactive). Besides, the GI50 in assay [19] was 9.75 µM (inactive); in assay [20], 14.3 µM (inactive); in [12], 4.2 µM (inactive); in [13], 8.61 µM (inactive); in assay [5], < 0.01 µM (active); in assay [6], 3.01 µM (inactive). For the same compound, the GI50 in assay [15] was 12.5 µM (inactive); in assay [16] it was 11 µM (inactive).
Consider `CC1(C)C(N2CCOCC2)CS1(=O)=O` (stereo not given), for which the GI50 in [10], in [17], in [18], in assay [1], in assay [2] and in [11] was > 10 µM (inactive) each time. Besides, the GI50 in assay [3], in assay [19], in assay [20], in [12], in [13] and in assay [5] was > 10 µM (inactive) in each case. Further, the GI50 in assay [6] was > 10 µM (inactive); in [7] it was > 10 µM (inactive); in assay [8], 4.98 µM (inactive); in assay [15], > 10 µM (inactive); in [16], > 10 µM (inactive).
Take `Nc1nc2cc(COc3ccc(C(=O)O)cc3)ccc2nc1-c1ccccc1`: the GI50 in assay [10], in assay [18], in assay [1], in [2], in assay [11] and in [3] was > 10 µM (inactive) throughout. Moreover, the GI50 in [19], in [20], in assay [12], in assay [13], in [7] and in [8] was > 10 µM (inactive) each time. Besides, the GI50 in [14], in assay [15] and in [16] was > 10 µM (inactive) throughout.
As for `Cc1cc(N(CCOS(C)(=O)=O)CCOS(C)(=O)=O)ccc1C=O`, the GI50 is 0.379 µM (active) in assay [10]; 15.2 µM (inactive) in assay [17]; 4.65 µM (inactive) in [1]; 9.73 µM (inactive) in [2]; 18.5 µM (inactive) in assay [11]; 9.93 µM (inactive) in assay [3]. Also, the GI50 in [19] was 3.05 µM (inactive); in [20], 28.5 µM (inactive); in assay [12] it was 11.5 µM (inactive); in [13], 11.4 µM (inactive); in [5] it was 7.91 µM (inactive); in assay [6], 11.7 µM (inactive). For the same compound, the GI50 in [16] was 2.91 µM (inactive).
For `CCOC(=O)C1=C(C)N(NC(N)=O)C2(O)CCCC(=O)C12C` (stereo not given), the GI50 in assay [10], in assay [1], in [2], in assay [19], in assay [5] and in assay [7] was > 100 µM (inactive) throughout. Also, the GI50 is > 100 µM (inactive) in [8], > 10 µM (inactive) in assay [14], > 100 µM (inactive) in assay [16] and > 100 µM (inactive) in [9].
As for `CC(=O)NC(c1nc2cc(C)c(C)cc2[nH]1)c1nc2cc(C)c(C)cc2[nH]1`, the GI50 in assay [10] is 29.2 µM (inactive); in assay [17], 23.2 µM (inactive); in assay [18] it was 20.2 µM (inactive); in assay [1] it was 16.9 µM (inactive); in assay [2] it was 19.8 µM (inactive); in assay [11] it was 36.8 µM (inactive). The GI50 in assay [3] is 1.02 µM (active); in [19] it was 25.4 µM (inactive); in assay [20] it was 26.1 µM (inactive); in assay [12], 17.7 µM (inactive); in [13], 19.1 µM (inactive); in assay [5] it was 29 µM (inactive). Moreover, the GI50 was 28.9 µM (inactive) in assay [6]; 26.3 µM (inactive) in assay [7]; 22.1 µM (inactive) in [8]; 43 µM (inactive) in assay [15]; 28.1 µM (inactive) in assay [16].
As for `CC1(c2sccc2Cl)CC(c2sccc2Cl)=C(C#N)C(=C(C#N)C#N)N1` (stereo not given), the GI50 in [10] is 18.5 µM (inactive); in assay [17], 17.8 µM (inactive); in assay [18], 16 µM (inactive); in assay [1], 14.5 µM (inactive); in assay [11], 21.5 µM (inactive); in [19], 18.6 µM (inactive). Moreover, the GI50 is 21.9 µM (inactive) in assay [20]; 22 µM (inactive) in assay [12]; 17.3 µM (inactive) in [13]; 17.6 µM (inactive) in [5]; 22.8 µM (inactive) in assay [6]; 16.4 µM (inactive) in [7]. For the same compound, the GI50 in assay [15] was 14.2 µM (inactive); in assay [16], 17.2 µM (inactive).
With `CSc1nc(SC)c2cnn(CC3CO3)c2n1` (stereo not given), the GI50 in assay [1] is 17.4 µM (inactive); in [3], 26.5 µM (inactive); in [4], 13.6 µM (inactive); in assay [5], 23.5 µM (inactive); in [6] it was 13.8 µM (inactive); in assay [7] it was 17.8 µM (inactive). The figures for the GI50 in [8] and in [9] were 17.3 µM (inactive) and 22.4 µM (inactive), respectively.
Turning to `COc1cccc2c1C(=O)c1c(O)c3c(c(O)c1C2=O)CC(O)(C(=O)CO)CC3OC1CC(N)C(I)C(C)O1` (stereo not given), the GI50 is 13.5 µM (inactive) in assay [1]; 9.68 µM (inactive) in [2]; 4.76 µM (inactive) in [3]; 2.7 µM (inactive) in [4]; 6.05 µM (inactive) in assay [5]; 12.4 µM (inactive) in [6]. In addition, the figures for the GI50 in [7], in assay [8] and in assay [9] were 2.44 µM (inactive), 2.52 µM (inactive) and 6.64 µM (inactive), respectively.

Source of the values: ChEMBL document CHEMBL1201862, “PubChem BioAssay data set” (2004).
